This note sets out measurements from US10626368B2, “Method for inducing cerebral cortex neurons” (KYOTO UNIVERSITY, priority 2015, dated 2020).

Common to all, as to assay type: cell-based, human
For one series, the system named is iPS cells (836B1). The experiment in a line: Immunostaining for CoupTF1 and Ctip2 on day 46, suspension culture with various WNT inhibitors (Example 4). Particulars: 50 nM C59, 100 nM LGK-974, 1 μM ICG-001, day 46; C59 and LGK-974 compared with each other. Here is the method: On the day before induction of differentiation, in order to separate the iPS cells (836B1), which had been cultured in a culture medium to which 10 μM Y-27632 had been added, from the SNL feeder cells, the SNL cells were removed with CTK and the remaining cells were then dissociated using Accumax. The cells were transferred on a 96-well plate (Lipidure-coat 96-well plate) in an amount of 9×10^3 cells per well. Thereafter, the cells were subjected to a suspension culture in DMEM/F12 comprising 50 μM Y-27632, 10 μM SB43152, 10 ng/ml bFGF, various types of Wnt inhibitors (50 nM C59, 100 nM LGK-974, or 1 μM ICG-001 (Cellagen Technology)), 100 nM LDN193189, 10% KSR, 0.1 mM MEM non-essential amino acid, 0.1 mM 2-mercaptoethanol, and 2 mM L-Gln (initiation of differentiation induction, day 0). […] Three days later, the medium was exchanged with DMEM/F12 comprising various types of WNT inhibitors (C59, LGK-974, or ICG-001), 100 nM LDN193189, 10% KSR, 0.1 mM MEM non-essential amino acid, 0.1 mM 2-mercaptoethanol, and 2 mM L-Gln (day 6). Thereafter, the medium was exchanged with a fresh one of the same type every 3 days, and the culture was carried out for 18 days after the initiation of differentiation induction (day 18).
A half of the medium on day 18 was removed by aspiration, and thereafter, Neurobasal, to which B27, 2 mM L-Gln, and 10 units/ml penicillin and streptomycin had been added, was added in the same amount as the removed medium to the remaining medium. Likewise, a half amount of the medium was exchanged on day 21. On day 24, the cells were transferred on a petri dish, and thereafter, a half of the medium was exchanged every 3 or 4 days. On day 46, the obtained cells were immunostained using antibodies against CoupTF1 and Ctip2. […] From the aforementioned results, it was confirmed that nerve cells existing in the desired corticocerebral motor area can be induced even by utilizing the WNT inhibitor LGK-974 having a similar action to C59.

Series [1] relates to ES cells or the iPS cells. The experiment in a line: qPCR of marker gene expression in cells differentiated with added inhibitors. An excerpt:
(§1) Human ES cells (KhES-1) were obtained from Institute for Frontier Medical Sciences, Kyoto University (Suemori H, et al. Biochem Biophys Res Commun. 345: 926-32, 2006). The human iPS cells 404C2 are cells obtained by introducing Oct3/4, Sox2, Klf4, L-MYC, LIN28 and p53shRNA into human fibroblasts, using an episomal vector, and these cells were obtained from Professor Yamanaka et al. in Kyoto University (Okita, et al, Nat Methods. 8: 409-412, 2011). The human iPS cells 836B1 are cells obtained by introducing Oct3/4, Sox2, Klf4, L-MYC, LIN28, GLIS1 and p53shRNA into human fibroblasts, using an episomal vector, and these cells were obtained from Professor Yamanaka et al. in Kyoto University. The ES cells and the iPS cells were cultured on SNL cells (Takahashi K, et al, Cell. 131: 861-872, 2007).
On the day before induction of differentiation, in order to separate the ES cells or the iPS cells, which had been cultured in a culture medium to which 10 μM Y-27632 (WAKO) had been added, from the SNL feeder cells, the SNL cells were removed with CTK and the remaining cells were then dissociated using Accumax (ICT). The cells were transferred on a 96-well plate (Lipidure-coat 96-well plate (NOF Corporation)) in an amount of 9×10^3 cells per well. Thereafter, the cells were subjected to a suspension culture in DMEM/F12 (WAKO) comprising 50 μM Y-27632 (WAKO), 10 μM SB43152 (Sigma), 10 ng/ml bFGF (Invitrogen), various types of Wnt inhibitors (DKK1 (R & D, 500 ng/ml), C59 (Cellagen Technology, 2-10 nM), XAV (Stemgent, 500 nM-2 μM) or IWP4 (Stemgent, 500 nM-2.5 μM)), LDN193189 (Stemgent), KSR (Invitrogen), 0.1 mM MEM non-essential amino acid (Invitrogen), 0.1 mM 2-mercaptoethanol (WAKO), and 2 mM L-Gln (Invitrogen) (initiation of differentiation induction, day 0). […] Three days later, the medium was exchanged with DMEM/F12 (WAKO) comprising various types of Wnt inhibitors (DKK1, C59, XAV or IWP4 (Stemgent)), LDN193189 (Stemgent), KSR (Invitrogen), 0.1 mM MEM non-essential amino acid (Invitrogen), 0.1 mM 2-mercaptoethanol (WAKO), and 2 mM L-Gln (Invitrogen) (day 6). Thereafter, the medium was exchanged with a fresh one of the same type every 3 days, and the culture was carried out for 18 days after the initiation of differentiation induction (day 18).
The obtained cell mass was transferred on a dish (24-well plate (BD)) coated with 50 μg/ml ornithine (Sigma), 5 μg/ml laminin (Sigma) and 5 μg/ml fibronectin (BD Bioscience Pharmingen), and the culture was continued in Neurobasal (Invitrogen), to which B27 (Invitrogen), 2 mM L-Gln, and 10 units/ml penicillin and streptomycin (Invitrogen) had been added. The culture was carried out for, at maximum, 46 days after the initiation of differentiation induction. It is to be noted that the medium was exchanged with a fresh one every 2 or 3 days.
In the above-described induction method, 500 ng/ml DKK1, 2 nM C59, 500 nM XAV or 500 nM IWP4 was added as a Wnt inhibitor to the cells, and the obtained mixture was then cultured for 18 days. Thereafter, the expression levels of Six3 (forebrain marker), Sox1 (neuroectodermal marker), Foxg1 (cerebral cortex-forming factor), Lhx2 (cerebral cortex-forming factor), Emx2 (forebrain back portion marker), CoupTF1 (forebrain back portion marker) and Pax6 (forebrain front portion marker) genes in the cultured cells were measured by a qPCR method (FIG. 2).
The concentration of C59 used as a Wnt inhibitor in the above-described induction method was examined. Specifically, without using C59, or using 2.5 nM, 10 nM and 1 μM C59, the cells were cultured for 18 days. […] The obtained spheres were subjected to immunostaining of using an antibody against Pax6. […] Furthermore, the expression levels of the Foxg1, Lhx2, Emx2 and CoupTF1 genes in the obtained spheres were measured according to a qPCR method (FIG. 4B). As a result, the expression level of CoupTF1 was low and the expression levels of Lhx2 and Foxg1 were high in the case of using 10 nM C59. […]
(In general: Real-time PCR tracks product formation cycle by cycle.)

Series [2] has as its system ES cells or the iPS cells. The experiment in a line: Immunostaining for CoupTF1 and Ctip2 after 46 days of cerebral cortex differentiation.
From the text: as §1
On the day before induction of differentiation, in order to separate the ES cells or the iPS cells, which had been cultured in a culture medium to which 10 μM Y-27632 (WAKO) had been added, from the SNL feeder cells, the SNL cells were removed with CTK and the remaining cells were then dissociated using Accumax (ICT). The cells were transferred on a 96-well plate (Lipidure-coat 96-well plate (NOF Corporation)) in an amount of 9×10^3 cells per well. Thereafter, the cells were subjected to a suspension culture in DMEM/F12 (WAKO) comprising 50 μM Y-27632 (WAKO), 10 μM SB43152 (Sigma), 10 ng/ml bFGF (Invitrogen), various types of Wnt inhibitors (DKK1 (R & D, 500 ng/ml), C59 (Cellagen Technology, 2-10 nM), XAV (Stemgent, 500 nM-2 μM) or IWP4 (Stemgent, 500 nM-2.5 μM)), LDN193189 (Stemgent), KSR (Invitrogen), 0.1 mM MEM non-essential amino acid (Invitrogen), 0.1 mM 2-mercaptoethanol (WAKO), and 2 mM L-Gln (Invitrogen) (initiation of differentiation induction, day 0). […]
The concentration of LDN193189 used in the above-described induction method was examined. […] Furthermore, the expression levels of the CoupTF1 and Sfrp1 genes were measured according to a qPCR method (FIG. 5C). […]

In series [3] the test system is ES cells or the iPS cells. The experiment in a line: Cell death / cytotoxicity in spheres on the 18th day of the culture. Conditions: 2 μM LDN193189, 18th day of the culture.
Experimental: On the day before induction of differentiation, in order to separate the ES cells or the iPS cells, which had been cultured in a culture medium to which 10 μM Y-27632 (WAKO) had been added, from the SNL feeder cells, the SNL cells were removed with CTK and the remaining cells were then dissociated using Accumax (ICT). The cells were transferred on a 96-well plate (Lipidure-coat 96-well plate (NOF Corporation)) in an amount of 9×10^3 cells per well. Thereafter, the cells were subjected to a suspension culture in DMEM/F12 (WAKO) comprising 50 μM Y-27632 (WAKO), 10 μM SB43152 (Sigma), 10 ng/ml bFGF (Invitrogen), various types of Wnt inhibitors (DKK1 (R & D, 500 ng/ml), C59 (Cellagen Technology, 2-10 nM), XAV (Stemgent, 500 nM-2 μM) or IWP4 (Stemgent, 500 nM-2.5 μM)), LDN193189 (Stemgent), KSR (Invitrogen), 0.1 mM MEM non-essential amino acid (Invitrogen), 0.1 mM 2-mercaptoethanol (WAKO), and 2 mM L-Gln (Invitrogen) (initiation of differentiation induction, day 0). […] Three days later, the medium was exchanged with DMEM/F12 (WAKO) comprising various types of Wnt inhibitors (DKK1, C59, XAV or IWP4 (Stemgent)), LDN193189 (Stemgent), KSR (Invitrogen), 0.1 mM MEM non-essential amino acid (Invitrogen), 0.1 mM 2-mercaptoethanol (WAKO), and 2 mM L-Gln (Invitrogen) (day 6). […]
The mark [4] stands for this setting: 0.1 μM, 0.5 μM and 2 μM LDN193189, 46 days, qPCR, in a concentration-dependent manner.
[5] abbreviates: 500 ng/ml DKK1 as Wnt inhibitor, cultured for 18 days, qPCR.

As to `Cc1cc(-c2ncc(CC(=O)Nc3ccc(-c4cnccn4)cn3)cc2C)ccn1` [LGK-974], the “efficiency of inducing CoupTF1-negative Ctip2-positive cells” value in the series on iPS cells (836B1) is listed as “not found a large difference”.

For `c1ccc2c(-c3cnn4cc(-c5ccc(N6CCNCC6)cc5)cnc34)ccnc2c1` [LDN193189, 4-(6-(4-(piperazin-1-yl)phenyl)pyrazolo [1,5-a]pyrimidin-3-yl)quinoline], in series [1] (setting [4]), the “expression level of CoupTF1” value is listed as “low” and the “expression level of Sfrp1” value is given as “high”. Also, the “CoupTF1-negative Ctip2-positive cells” value in series [2] (0.1 μM, 0.5 μM and 2 μM LDN193189, 46 days) is “obtained in a concentration-dependent manner”. For the same molecule, in series [3], the “cell death in spheres” value is on record as “cell death was often found” and the cytotoxicity entry was “strongly appeared”.

For SB431542, the “CoupTF1-negative Ctip2-positive cells” value in series [2] (10 μM SB43152 as TGFβ inhibitor, 46 days) was “obtained”.

Regarding `O=C1[C@H](Cc2ccc(O)cc2)N2C(=O)CCN(C(=O)NCc3ccccc3)[C@H]2CN1Cc1cccc2ccccc12` [ICG-001], in the series with iPS cells (836B1), the “efficiency of inducing CoupTF1-negative Ctip2-positive cells” value is on record as “significantly low”.

B1: DKK1: DKK1 protein, Wnt inhibitor (human NCBI Accession No. NM_012242), R & D (protein, UniProt O94907 32-266, looked up)
Dickkopf-related protein 1: TLNSVLNSNAIKNLPPPLGGAAGHPGSAVSAAPGILYPGGNKYQTIDNYQPYPCAEDEECGTDEYCASPTRGGDAGVQICLACRKRRKRCMRHAMCCPGNYCKNGICVSSDQNHFRGEIEETITESFGNDHSTLDGYSRRTTLSSKMYHTKGQEGSVCLRSSDCASGLCCARHFWSKICKPVLKEGQVCTKHRRKGSHGLEIFQRCYCGEGLSCRIQKDHHQASNSSRLHTCQRH
For B1, the “cells in the back portion of the forebrain induced” value in series [1] (500 ng/ml DKK1 as Wnt inhibitor, cultured for 18 days) is “a large number”. For the same molecule, in series [1] (setting [5]), the “expression level of CoupTF1 (forebrain back portion marker)” value is “high” and the “expression level of Emx2 (forebrain back portion marker)” value is listed as “high”.
